Converted amounts (≈) assume the structure as drawn.
What was measured:
HBV [1] = settings: literature report; cited from earlier work
[2] = Cytotoxic Concentration in HepG2 2. 2. 15 cell line; format: cell-based; settings: human, hepg2 2.2.15 cells
Experimental: (§1) Anti-HBV effect of 1-(5-hydroxymethyl-1,4-dioxan-2-yl)thymine, one of the desired product of the present invention prepared in Example 38, was tested in HepG2 2. 2. 15 cell line. The resultant Effective Concentration (Ec50, EC90), Cytotoxic Concentration (CC50) and Selectivity Index (SI) are shown in the Table below.

HBV [3] = assay: Anti-HBV effect in HepG2 2. 2. 15 cell line; format: cell-based, Hepatitis B Virus
Experimental: as §1

Row | Structure (SMILES) | anti-HBV activity (in words) (HBV [1]) | also measured
1 | Nc1nc(=O)n(C2CCC(CO)O2)cc1F [2'3'-dideoxy-β-L-5-fluoro-cytidine] | showing anti-HBV activity | 
2 | Nc1ccn([C@H]2CS[C@@H](CO)O2)c(=O)n1 [2',3'-dideoxy-3'-thiacytidine] | showing anti-HBV activity | 
3 | Nc1ccn(C2CCC(CO)O2)c(=O)n1 [2',3'-dideoxy-β-L-cytidine] | showing anti-HBV activity | 
4 | Nc1nc(=O)n([C@H]2CS[C@@H](CO)O2)cc1F [5-fluoro-2',3'-dideoxy-3'-thiacytidine] | showing anti-HBV activity | 
5 | Cc1cn(C2COC(CO)CO2)c(=O)[nH]c1=O (centres unmarked) [Compound of Ex.38, 1-(5-hydroxymethyl-1,4-dioxan-2-yl)thymine] |  | CC50 [2]: 846 µg/mL (≈ 3490 µM); SI (CC50/EC50) (Selectivity Index) (HBV [3]; CC50/EC50): 188; EC50 (HBV [3]; Hepatitis B virus, HepG2 2.2.15, read-out: EC50 (Effective Concentration)): 4.5 µg/mL (≈ 18.6 µM); EC90 (HBV [3]; Hepatitis B virus, HepG2 2.2.15, read-out: EC90 (Effective Concentration)): 15 µg/mL (≈ 61.9 µM)
